# In PubChem BioAssay AID2060623 (Molecular Pharmacology Branch, DTP, NCI, 2025):
# Tested on: 227483-062-R1-J1-PDC complex spheroids with HUVEC/MSC, viability
# Assay: Anticancer human tumor 227483-062-R1-J1-PDC patient-derived pancreatic carcinoma cell line growth inhibition [CLK]
# Settings: for IC50: curve of first compound; for viability, T/C: stronger effect = lower value
# How it was run: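 Patient-derived tumor cells grown as complex spheroids with HUVEC endothelial cells and mesenchymal stem cells, treated with drug combinations. Concentrations descend in half-log steps from near clinical Cmax, or from 10 microM if Cmax unknown.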
# [1] = second compound 0.0316 µM, first compound 0.0316 µM
# [2] = second compound 0.0316 µM, first compound 0.1 µM
# [3] = second compound 0.0316 µM, first compound 0.316 µM
# [4] = second compound 0.0316 µM, first compound 1 µM
# [5] = second compound 0.0316 µM, first compound 3.16 µM
# [6] = second compound 0.0316 µM, first compound 10 µM
# [7] = second compound 0.1 µM, first compound 0.0316 µM
# [8] = second compound 0.1 µM, first compound 0.1 µM
# [9] = second compound 0.1 µM, first compound 0.316 µM
# [10] = second compound 0.1 µM, first compound 1 µM
# [11] = second compound 0.1 µM, first compound 3.16 µM
# [12] = second compound 0.1 µM, first compound 10 µM
# [13] = second compound 0.316 µM, first compound 0.0316 µM
# [14] = second compound 0.316 µM, first compound 0.1 µM
# [15] = second compound 0.316 µM, first compound 0.316 µM
# [16] = second compound 0.316 µM, first compound 1 µM
# [17] = second compound 0.316 µM, first compound 3.16 µM
# [18] = second compound 0.316 µM, first compound 10 µM
# [19] = second compound 1 µM, first compound 0.0316 µM
# [20] = second compound 1 µM, first compound 0.1 µM
# [21] = second compound 1 µM, first compound 0.316 µM
# [22] = second compound 1 µM, first compound 1 µM
# [23] = second compound 1 µM, first compound 3.16 µM
# [24] = second compound 1 µM, first compound 10 µM
# [25] = second compound 3.16 µM, first compound 0.0316 µM
# [26] = second compound 3.16 µM, first compound 0.1 µM
# [27] = second compound 3.16 µM, first compound 0.316 µM
# [28] = second compound 3.16 µM, first compound 1 µM
# [29] = second compound 3.16 µM, first compound 3.16 µM
# [30] = second compound 3.16 µM, first compound 10 µM
# [31] = second compound 10 µM, first compound 0.0316 µM
# [32] = second compound 10 µM, first compound 0.1 µM
# [33] = second compound 10 µM, first compound 0.316 µM
# [34] = second compound 10 µM, first compound 1 µM
# [35] = second compound 10 µM, first compound 3.16 µM
# [36] = second compound 10 µM, first compound 10 µM
# 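Note: spheroids exposed to compounds for seven days before readout.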
# 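Throughout, for viability, T/C: percent of DMSO vehicle control luminescence as 100% viability.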
smiles,measurement,setting,value
CC(=O)O[C@H]1C(=O)[C@@]2(C)[C@H]([C@H](OC(=O)c3ccccc3)[C@]3(O)C[C@H](OC(=O)[C@H](O)[C@@H](NC(=O)c4ccccc4)c4ccccc4)C(C)=C1C3(C)C)[C@]1(OC(C)=O)CO[C@@H]1C[C@@H]2O + CN1CCN(c2cc(C(=O)Nc3cc4cc(-c5cnn(C)c5)ccc4cn3)ccn2)CC1,IC50,second compound 0.0316 µM,< 31.6 nM
same,IC50,second compound 0.1 µM,< 31.6 nM
same,IC50,second compound 0.316 µM,< 31.6 nM
same,IC50,second compound 1 µM,< 31.6 nM
same,IC50,second compound 3.16 µM,< 31.6 nM
same,IC50,second compound 10 µM,< 31.6 nM
same,"viability, T/C",[1],27.4%
same,"viability, T/C",[2],22.2%
same,"viability, T/C",[3],31.2%
same,"viability, T/C",[4],31.4%
same,"viability, T/C",[5],36.9%
same,"viability, T/C",[6],43.8%
same,"viability, T/C",[7],28.6%
same,"viability, T/C",[8],32.8%
same,"viability, T/C",[9],35%
same,"viability, T/C",[10],38%
same,"viability, T/C",[11],40.7%
same,"viability, T/C",[12],40.6%
same,"viability, T/C",[13],2.61%
same,"viability, T/C",[14],6.66%
same,"viability, T/C",[15],2.59%
same,"viability, T/C",[16],4.5%
same,"viability, T/C",[17],5.51%
same,"viability, T/C",[18],6.7%
same,"viability, T/C",[19],1.8%
same,"viability, T/C",[20],2.26%
same,"viability, T/C",[21],3.26%
same,"viability, T/C",[22],4%
same,"viability, T/C",[23],1.87%
same,"viability, T/C",[24],2.01%
same,"viability, T/C",[25],7.44%
same,"viability, T/C",[26],3.02%
same,"viability, T/C",[27],3.51%
same,"viability, T/C",[28],2.58%
same,"viability, T/C",[29],5.48%
same,"viability, T/C",[30],4.46%
same,"viability, T/C",[31],1.55%
same,"viability, T/C",[32],1.61%
same,"viability, T/C",[33],1.94%
same,"viability, T/C",[34],1.68%
same,"viability, T/C",[35],1.56%
same,"viability, T/C",[36],1.39%
CCc1c2c(nc3ccc(O)cc13)-c1cc3c(c(=O)n1C2)COC(=O)[C@]3(O)CC + CN1CCN(c2cc(C(=O)Nc3cc4cc(-c5cnn(C)c5)ccc4cn3)ccn2)CC1,IC50,second compound 0.0316 µM,276 nM
same,IC50,second compound 0.1 µM,12.9 nM
same,IC50,second compound 0.316 µM,< 3.16 nM
same,IC50,second compound 1 µM,< 3.16 nM
same,IC50,second compound 3.16 µM,< 3.16 nM
same,IC50,second compound 10 µM,< 3.16 nM
same,"viability, T/C","second compound 0.0316 µM, first compound 0.00316 µM",96.7%
same,"viability, T/C","second compound 0.0316 µM, first compound 0.01 µM",99%
same,"viability, T/C",[1],74.9%
same,"viability, T/C",[2],62%
same,"viability, T/C",[3],52.1%
same,"viability, T/C",[4],32.5%
same,"viability, T/C","second compound 0.1 µM, first compound 0.00316 µM",58.4%
same,"viability, T/C","second compound 0.1 µM, first compound 0.01 µM",53.1%
same,"viability, T/C",[7],38.7%
same,"viability, T/C",[8],38.1%
same,"viability, T/C",[9],25.4%
same,"viability, T/C",[10],8.95%
same,"viability, T/C","second compound 0.316 µM, first compound 0.00316 µM",3.53%
same,"viability, T/C","second compound 0.316 µM, first compound 0.01 µM",4.77%
same,"viability, T/C",[13],3.57%
same,"viability, T/C",[14],4.05%
same,"viability, T/C",[15],1.85%
same,"viability, T/C",[16],0.98%
same,"viability, T/C","second compound 1 µM, first compound 0.00316 µM",1.32%
same,"viability, T/C","second compound 1 µM, first compound 0.01 µM",1.1%
same,"viability, T/C",[19],1.61%
same,"viability, T/C",[20],1.38%
same,"viability, T/C",[21],2.57%
same,"viability, T/C",[22],2.01%
same,"viability, T/C","second compound 3.16 µM, first compound 0.00316 µM",4.99%
same,"viability, T/C","second compound 3.16 µM, first compound 0.01 µM",2.04%
same,"viability, T/C",[25],2.02%
same,"viability, T/C",[26],2.48%
same,"viability, T/C",[27],5.26%
same,"viability, T/C",[28],2.04%
same,"viability, T/C","second compound 10 µM, first compound 0.00316 µM",1.98%
same,"viability, T/C","second compound 10 µM, first compound 0.01 µM",1.03%
same,"viability, T/C",[31],0.86%
same,"viability, T/C",[32],2.28%
same,"viability, T/C",[33],0.94%
same,"viability, T/C",[34],0.92%
COc1cccc2c1C(=O)c1c(O)c3c(c(O)c1C2=O)CC(O)(C(=O)CO)CC3OC1CC(N)C(O)C(C)O1 (stereo unspecified) + CN1CCN(c2cc(C(=O)Nc3cc4cc(-c5cnn(C)c5)ccc4cn3)ccn2)CC1,IC50,second compound 0.0316 µM,180 nM
same,IC50,second compound 0.1 µM,73.4 nM
same,IC50,second compound 0.316 µM,< 31.6 nM
same,IC50,second compound 1 µM,< 31.6 nM
same,IC50,second compound 3.16 µM,< 31.6 nM
same,IC50,second compound 10 µM,< 31.6 nM
same,"viability, T/C",[1],84.1%
same,"viability, T/C",[2],68%
same,"viability, T/C",[3],32.8%
same,"viability, T/C",[4],12.8%
same,"viability, T/C",[5],2.47%
same,"viability, T/C",[6],10.4%
same,"viability, T/C",[7],64.5%
same,"viability, T/C",[8],44.6%
same,"viability, T/C",[9],17.3%
same,"viability, T/C",[10],8.44%
same,"viability, T/C",[11],2.6%
same,"viability, T/C",[12],10.8%
same,"viability, T/C",[13],5.51%
same,"viability, T/C",[14],5.14%
same,"viability, T/C",[15],1.16%
same,"viability, T/C",[16],1.51%
same,"viability, T/C",[17],3.05%
same,"viability, T/C",[18],9.1%
same,"viability, T/C",[19],1.69%
same,"viability, T/C",[20],1.91%
same,"viability, T/C",[21],2.92%
same,"viability, T/C",[22],4.33%
same,"viability, T/C",[23],3.24%
same,"viability, T/C",[24],11%
same,"viability, T/C",[25],5.16%
same,"viability, T/C",[26],2.78%
same,"viability, T/C",[27],2.53%
same,"viability, T/C",[28],3.22%
same,"viability, T/C",[29],3.62%
same,"viability, T/C",[30],7.06%
same,"viability, T/C",[31],3.68%
same,"viability, T/C",[32],1.75%
same,"viability, T/C",[33],1.37%
same,"viability, T/C",[34],1.43%
same,"viability, T/C",[35],1.53%
same,"viability, T/C",[36],1.26%
